biological target: T1, 11β-hydroxysteroid dehydrogenase (HSD) 1 (Homo sapiens, UniProt P28845); test: In vitro inhibition of 11β-HSD1, HTRF detection of cortisol generated from cortisone by human liver microsomes; type: biochemical; details: compound concentration 1 μM, 100% indicates no inhibition, zero or below zero indicates complete inhibition
T1 construct: detecting cortisol generated from cortisterone by human liver microsomes; from tissue; host or cells: human liver microsomes
Experimental: Briefly, compounds are incubated for 1 hour at 37° C. in Tris buffer (20 mM tris, 5 mM EDTA, pH 6.0) containing NADPH (200 μM) and cortisone (80 nM). Cortisol generated in the reaction is then detected with a competitive immunoassay, involving two HTRF conjugates: cortisol linked to XL665 and anti-cortisol antibody labeled with Europium cryptate. The incubation period for detection reaction is typically 2 hours. The amount of cortisol is determined by reading the time-resolved fluorescence of the wells (Ex 320/75 nm; Em 615/8.5 nm and 665/7.5 nm). The ratio of the two emission signals is then calculated (Em665*10000/Em615). […] Each assay also contains a calibration curve with cortisol to transform the fluorescent data into cortisol concentrations. Percent inhibition (% CTL) of each compound is determined relative to the carbenoxolone signal and IC50 curves are generated.
The % CTL values of some example compounds at a concentration of 1 μM are provided in the following Table 2 wherein 100% indicates no inhibition and a value of zero or below zero indicates complete inhibition. The measurement of % CTL is described hereinbefore.

T1 sequence (P28845 whole entry): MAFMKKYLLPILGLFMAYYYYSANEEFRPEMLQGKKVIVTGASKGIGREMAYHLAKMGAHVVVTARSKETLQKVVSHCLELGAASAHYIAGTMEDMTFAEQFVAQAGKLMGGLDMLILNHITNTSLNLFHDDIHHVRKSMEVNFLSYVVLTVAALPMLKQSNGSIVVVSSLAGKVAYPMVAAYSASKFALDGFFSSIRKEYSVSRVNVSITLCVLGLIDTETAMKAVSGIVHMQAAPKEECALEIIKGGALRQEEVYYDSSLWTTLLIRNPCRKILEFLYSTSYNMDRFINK

| 11β-HSD 1 inhibitory activity (% CTL at 1 μM) [% CTL] | SMILES |
| --- | --- |
| 8 | O=C(O)c1ccc(Oc2ccc3c(c2)CN(C(=O)C24CC5CC(C2)CC(C26CC7CC(CC(C(=O)O)(C7)C2)C6)(C5)C4)CC3)cc1 [Example 45] |
| 0 | CN(C)C(=O)c1ccc(Oc2ccc3c(c2)CN(C(=O)C24CC5CC(C2)CC(C26CC7CC(CC(C(=O)O)(C7)C2)C6)(C5)C4)CC3)cc1 [Example 46] |
| 37 | CN1CCN(C(=O)C23CC4CC(C2)CC(C25CC6CC(CC(C(=O)O)(C6)C2)C5)(C4)C3)CC1 [Example 22] |
| 24 | O=C(O)C12CC3CC(C1)CC(C14CC5CC(CC(C(=O)N6CCc7cc(Br)ccc7C6)(C5)C1)C4)(C3)C2 [Example 49] |
| −26 | CCN(C)C(=O)C12CC3CC(C1)CC(C14CC5CC(CC(C(=O)O)(C5)C1)C4)(C3)C2 [Example 18] |
| 13 | CN(C(=O)C12CC3CC(C1)CC(C14CC5CC(CC(C(=O)O)(C5)C1)C4)(C3)C2)C1CCC(c2ccccc2)CC1 (stereo not shown) [Example 36] |
| 4 | O=C(O)C12CC3CC(C1)CC(C14CC5CC(CC(C(=O)N6CCc7ccccc76)(C5)C1)C4)(C3)C2 [Example 51] |
| 69 | CC(=O)NC12CC3CC(C1)CC(C14CC5CC(CC(C(=O)O)(C5)C1)C4)(C3)C2 [Example 16] |
| −26 | CC(C)N(C)C(=O)C12CC3CC(C1)CC(C14CC5CC(CC(C(=O)O)(C5)C1)C4)(C3)C2 [Example 17] |
| 53 | O=C(O)C12CC3CC(C1)CC(C14CC5CC(CC(C(=O)NCCO)(C5)C1)C4)(C3)C2 [Example 13] |
| 95 | NC12CC3CC(C1)CC(C14CC5CC(CC(C(=O)O)(C5)C1)C4)(C3)C2 [Example 8] |
| 69 | O=C(O)C12CC3CC(C1)CC(C14CC5CC(CC(c6nnn[nH]6)(C5)C1)C4)(C3)C2 [Example 21] |
| −11 | CC(C)(O)C12CC3CC(C1)CC(C14CC5CC(CC(C(=O)O)(C5)C1)C4)(C3)C2 [Example 3] |
| 53 | O=C(O)C12CC3CC(C1)CC(C14CC5CC(CC(C(=O)N(CCc6ccccc6)C6CCCCC6)(C5)C1)C4)(C3)C2 [Example 39] |
| −18 | COc1ccc(CCCN(C)C(=O)C23CC4CC(C2)CC(C25CC6CC(CC(C(=O)O)(C6)C2)C5)(C4)C3)cc1 [Example 23] |
| 44 | O=C(O)C12CC3CC(C1)CC(C14CC5CC(CC(c6nnc(-c7ccccc7)o6)(C5)C1)C4)(C3)C2 [Example 26] |
| −17 | N#Cc1ccc2c(c1)CN(C(=O)C13CC4CC(C1)CC(C15CC6CC(CC(C(=O)O)(C6)C1)C5)(C4)C3)CC2 [Example 44] |
| −5 | O=C(O)C12CC3CC(C1)CC(C14CC5CC(CC(CO)(C5)C1)C4)(C3)C2 [Example 14] |
| −36 | O=C(O)C12CC3CC(C1)CC(C14CC5CC(CC(C(=O)N6Cc7ccccc7C6)(C5)C1)C4)(C3)C2 [Example 42] |
| −7 | COC(=O)C12CC3CC(C1)CC(C14CC5CC(CC(C(=O)O)(C5)C1)C4)(C3)C2 [Example 1] |
| 36 | CN(C(=O)C12CC3CC(C1)CC(C14CC5CC(CC(C(=O)O)(C5)C1)C4)(C3)C2)c1ccc(-c2ccccc2)cc1 [Example 34] |
| −8 | CN(C(=O)C12CC3CC(C1)CC(C14CC5CC(CC(C(=O)O)(C5)C1)C4)(C3)C2)C1CCCCC1 [Example 29] |
| −20 | CN(C(=O)C12CC3CC(C1)CC(C14CC5CC(CC(C(=O)O)(C5)C1)C4)(C3)C2)C1CCCC1 [Example 40] |
| 61 | CN(C(=O)C12CC3CC(C1)CC(C14CC5CC(CC(C(=O)O)(C5)C1)C4)(C3)C2)C1CCCNC1 (stereo not shown) [Example 31] |
| 49 | CN(Cc1ccccc1)C(=O)C12CC3CC(C1)CC(C14CC5CC(CC(C(=O)O)(C5)C1)C4)(C3)C2 [Example 9] |

| 11β-HSD 1 inhibitory activity (% CTL at 1 μM) [% CTL] | SMILES |
| --- | --- |
| −15 | COCC1CCCN1C(=O)C12CC3CC(C1)CC(C14CC5CC(CC(C(=O)O)(C5)C1)C4)(C3)C2 (stereo not shown) [Example 47] |
| 0 | O=C(O)C12CC3CC(C1)CC(C14CC5CC(CC(c6nc7ccccc7n6CCc6ccccc6)(C5)C1)C4)(C3)C2 [Example 41] |
| 50 | NC(=O)C12CC3CC(C1)CC(C14CC5CC(CC(C(=O)O)(C5)C1)C4)(C3)C2 [Example 5] |
| 19 | N#CNC(=O)C12CC3CC(C1)CC(C14CC5CC(CC(C(=O)O)(C5)C1)C4)(C3)C2 [Example 19] |
| 7 | CN(C(=O)C12CC3CC(C1)CC(C14CC5CC(CC(C(=O)O)(C5)C1)C4)(C3)C2)C1CCC(C(C)(C)C)CC1 (stereo not shown) [Example 38] |
| 12 | O=C(O)C12CC3CC(C1)CC(C14CC5CC(CC(c6nc7ccccc7o6)(C5)C1)C4)(C3)C2 [Example 27] |
| −33 | COc1ccc(C(=O)C23CC4CC(C2)CC(C25CC6CC(CC(C(=O)O)(C6)C2)C5)(C4)C3)cc1 [Example 24] |
| 26 | CC(C)(C)OC(=O)NC12CC3CC(C1)CC(C14CC5CC(CC(C(=O)O)(C5)C1)C4)(C3)C2 [Example 7] |
| −3 | CCN(C(=O)C12CC3CC(C1)CC(C14CC5CC(CC(C(=O)O)(C5)C1)C4)(C3)C2)C1CCCCC1 [Example 35] |
| −13 | CN(C)C(=O)C12CC3CC(C1)CC(C14CC5CC(CC(C(=O)O)(C5)C1)C4)(C3)C2 [Example 4] |
| 1 | O=C(O)C12CC3CC(C1)CC(C14CC5CC(CC(C(=O)N6CCOCC6)(C5)C1)C4)(C3)C2 [Example 12] |
| 96 | O=C(O)C12CC3CC(C1)CC(C14CC5CC(CC(C(=O)Nc6ccccc6)(C5)C1)C4)(C3)C2 [Example 28] |
| 81 | COc1ccc(N(C)C(=O)C23CC4CC(C2)CC(C25CC6CC(CC(C(=O)O)(C6)C2)C5)(C4)C3)cc1 [Example 33] |
| 29 | CNC(=O)C12CC3CC(C1)CC(C14CC5CC(CC(C(=O)O)(C5)C1)C4)(C3)C2 [Example 2] |
| 62 | O=C(O)C12CC3CC(C1)CC(C14CC5CC(CC(C6=NCc7ccccc7N6)(C5)C1)C4)(C3)C2 [Example 37] |
| −20 | O=C(O)C12CC3CC(C1)CC(C14CC5CC(CC(C(=O)N6CCc7ccccc7C6)(C5)C1)C4)(C3)C2 [Example 43] |
| 1 | N#CC12CC3CC(C1)CC(C14CC5CC(CC(C(=O)O)(C5)C1)C4)(C3)C2 [Example 6] |
| −9 | O=C(O)C12CC3CC(C1)CC(C14CC5CC(CC(c6ncc7ccccc7n6)(C5)C1)C4)(C3)C2 [Example 50] |
| 30 | CN(C(=O)C12CC3CC(C1)CC(C14CC5CC(CC(C(=O)O)(C5)C1)C4)(C3)C2)c1ccccc1 [Example 30] |
| −11 | O=C(O)C12CC3CC(C1)CC(C14CC5CC(CC(C(=O)N6CCCC6)(C5)C1)C4)(C3)C2 [Example 11] |
| 34 | O=C(O)C12CC3CC(C1)CC(C14CC5CC(CC(COc6ccccn6)(C5)C1)C4)(C3)C2 [Example 15] |
| −3 | CN(CCc1ccccc1)C(=O)C12CC3CC(C1)CC(C14CC5CC(CC(C(=O)O)(C5)C1)C4)(C3)C2 [Example 10] |
| 7 | O=C(O)C12CC3CC(C1)CC(C14CC5CC(CC(C(=O)N6CCC6)(C5)C1)C4)(C3)C2 [Example 20] |
| 8 | Cn1c(C23CC4CC(C2)CC(C25CC6CC(CC(C(=O)O)(C6)C2)C5)(C4)C3)nc2ccccc21 [Example 32] |
